Assay: Fulvestrant aqueous solubility in the presence and absence of cyclodextrins (excess drug, shaken 24 h, filtered, HPLC)
Assay type: physicochemical
Conditions: for True Fulvestrant Concentration: 22° C., 24 h; for Average Concentration / Quantity of Fulvestrant Diluted Run 1 / Quantity of Fulvestrant Diluted Run 2: diluted sample
Protocol: The HPLC system used for the chromatographic determination of fulvestrant consisted of a Waters 600E quaternary gradient pump, a Waters 717plus WISP auto-sampler and a Waters 2487 Dual A, Absorbance detector. Separation was performed using a Phenomenex Luna C18 column (250×4.6 mm; 5 urn) (Phenomenex, Torrance, Calif.) (supplied by Separations, South Africa) and a mobile phase consisting of 50% MeCN:22.5% ddH2O :27.5% MeOH. The mobile phase was degassed and filtered prior to use. […] Sample run times were 15 minutes. The UV detector wavelength was set to 280 nm.
1 mL of each of the following aqueous solutions was prepared containing 0; 25; 50; 75 and 100 mg/mL ACD in ddHiO. Excess fulvestrant was added to each of these solutions and the samples were shaken for 24 hours on an orbital shaker at 200 rpm and at 22° C. room temperature. Excess fulvestrant was present in all samples at all times. After 24-hours, the samples were filtered through 0.45 μm syringe tip filters, diluted according to requirements and assayed by HPLC.
1 mL of each of the following aqueous solutions was prepared containing 0; 5; 7.5; 10 and 15 mg/mL BCD in ddH2O. Excess fulvestrant was added to each of these solutions and the samples were shaken for 24 hours on an orbital shaker at 200 rpm and at 22° C. room temperature. Excess fulvestrant was present in all samples at all times. After 24-hours, the samples were filtered through 0.45 μm syringe tip filters, diluted according to requirements and assayed by HPLC.
1 mL of each of the following aqueous solutions was prepared containing 0; 50; 100; 150; 200; 250; 300; 350 and 400 mg/mL MBCD in ddH2O. Excess fulvestrant was added to each of these solutions and the samples were shaken for 24 hours on an orbital shaker at 200 rpm and at 22° C. room temperature. Excess fulvestrant was present in all samples at all times. After 24-hours, the samples were filtered through 0.45 μm syringe tip filters, diluted according to requirements and assayed by HPLC.
1 mL of each of the following aqueous solutions was prepared containing 0; 50; 100; 150; 200; 250; 300; 350 and 400 mg/mL HPBCD in ddH2O. Excess fulvestrant was added to each of these solutions and the samples were shaken for 24 hours on an orbital shaker at 200 rpm and at 22° C. room temperature. Excess fulvestrant was present in all samples at all times. After 24-hours, the samples were filtered through 0.45 μm syringe tip filters, diluted according to requirements and assayed by HPLC.
1 mL of each of the following aqueous solutions was prepared containing 0; 50; 100; 150; 200; 250; 300; 350 and 400 mg/mL SBEBCD in ddH2O. Excess fulvestrant was added to each of these solutions and the samples were shaken for 24 hours on an orbital shaker at 200 rpm and at 22° C. room temperature. Excess fulvestrant was present in all samples at all times. After 24-hours, the samples were filtered through 0.45 μm syringe tip filters, diluted according to requirements and assayed by HPLC.
1 mL of each of the following aqueous solutions was prepared containing 0; 50; 100; 150; and 200 mg/mL GCD in ddHO. Excess fulvestrant was added to each of these solutions and the samples were shaken for 24 hours on an orbital shaker at 200 rpm and at 22° C. room temperature. Excess fulvestrant was present in all samples at all times. After 24-hours, the samples were filtered through 0.45 μm syringe tip filters, diluted according to requirements and assayed by HPLC.
1 mL of each of the following aqueous solutions was prepared containing 0; 50; 100; 150; 200; 250; 300; 350 and 400 mg/mL HPGCD in ddH2O. Excess fulvestrant was added to each of these solutions and the samples were shaken for 24 hours on an orbital shaker at 200 rpm and at 22° C. room temperature. Excess fulvestrant was present in all samples at all times. After 24-hours, the samples were filtered through 0.45 μm syringe tip filters, diluted according to requirements and assayed by HPLC.

C[C@]12CC[C@@H]3c4ccc(O)cc4C[C@@H](CCCCCCCCC[S+]([O-])CCCC(F)(F)C(F)(F)F)[C@H]3[C@@H]1CC[C@@H]2O (stereo partly drawn) [Fulvestrant, 7-alpha-[9-(4,4,5,5,5-pentafluoropentylsulphinyl)nonyl]estra-1,3,5-(10)-triene-3,17-beta-diol]
True Fulvestrant Concentration (0 mg/mL ACD in ddH2O): <0.010 mg/mL | Average Concentration (0 mg/mL ACD): <10.00 µg/mL | Quantity of Fulvestrant Diluted Run 1 (0 mg/mL ACD): <10.000 µg/mL | Quantity of Fulvestrant Diluted Run 2 (0 mg/mL ACD): <10.010 µg/mL | True Fulvestrant Concentration (0 mg/mL BCD in ddH2O): <0.010 mg/mL | Average Concentration (0 mg/mL BCD): <10.00 µg/mL | Quantity of Fulvestrant Diluted Run 1 (0 mg/mL BCD): <10.000 µg/mL | Quantity of Fulvestrant Diluted Run 2 (0 mg/mL BCD): <10.000 µg/mL | True Fulvestrant Concentration (0 mg/mL GCD in ddH2O): <0.010 mg/mL | Average Concentration (0 mg/mL GCD): <10.00 µg/mL | Quantity of Fulvestrant Diluted Run 1 (0 mg/mL GCD): <10.000 µg/mL | Quantity of Fulvestrant Diluted Run 2 (0 mg/mL GCD): <10.000 µg/mL | True Fulvestrant Concentration (0 mg/mL HPBCD in ddH2O): <0.010 mg/mL | Average Concentration (0 mg/mL HPBCD): <10.00 µg/mL | Quantity of Fulvestrant Diluted Run 1 (0 mg/mL HPBCD): <10.00 µg/mL | Quantity of Fulvestrant Diluted Run 2 (0 mg/mL HPBCD): <10.00 µg/mL | True Fulvestrant Concentration (0 mg/mL HPGCD in ddH2O): <0.010 mg/mL | Average Concentration (0 mg/mL HPGCD): <10.00 µg/mL | Quantity of Fulvestrant Diluted Run 1 (0 mg/mL HPGCD): <10.00 µg/mL | Quantity of Fulvestrant Diluted Run 2 (0 mg/mL HPGCD): <10.00 µg/mL | True Fulvestrant Concentration (0 mg/mL MBCD in ddH2O): <0.010 mg/mL | Average Concentration (0 mg/mL MBCD): <10.00 µg/mL | Quantity of Fulvestrant Diluted Run 1 (0 mg/mL MBCD): <10.00 µg/mL | Quantity of Fulvestrant Diluted Run 2 (0 mg/mL MBCD): <10.00 µg/mL | Average Concentration (0 mg/mL SBEBCD): <10.00 µg/mL | Quantity of Fulvestrant Diluted Run 1 (0 mg/mL SBEBCD): <10.00 µg/mL | Quantity of Fulvestrant Diluted Run 2 (0 mg/mL SBEBCD): <10.00 µg/mL | True Fulvestrant Concentration (5 mg/mL BCD in ddH2O): <0.010 mg/mL | Average Concentration (5 mg/mL BCD): <10.00 µg/mL | Quantity of Fulvestrant Diluted Run 1 (5 mg/mL BCD): <10.000 µg/mL | Quantity of Fulvestrant Diluted Run 2 (5 mg/mL BCD): <10.000 µg/mL | True Fulvestrant Concentration (10 mg/mL BCD in ddH2O): <0.010 mg/mL | Average Concentration (10 mg/mL BCD): <10.00 µg/mL | Quantity of Fulvestrant Diluted Run 1 (10 mg/mL BCD): <10.000 µg/mL | Quantity of Fulvestrant Diluted Run 2 (10 mg/mL BCD): <10.000 µg/mL | True Fulvestrant Concentration (15 mg/mL BCD in ddH2O): 0.013 mg/mL | Average Concentration (15 mg/mL BCD): 13.00 µg/mL | Quantity of Fulvestrant Diluted Run 1 (15 mg/mL BCD): 13.060 µg/mL | Quantity of Fulvestrant Diluted Run 2 (15 mg/mL BCD): 12.940 µg/mL | True Fulvestrant Concentration (25 mg/mL ACD in ddH2O): 0.033 mg/mL | Average Concentration (25 mg/mL ACD): 33.30 µg/mL | Quantity of Fulvestrant Diluted Run 1 (25 mg/mL ACD): 33.620 µg/mL | Quantity of Fulvestrant Diluted Run 2 (25 mg/mL ACD): 32.970 µg/mL | True Fulvestrant Concentration (50 mg/mL ACD in ddH2O): 0.111 mg/mL | Average Concentration (50 mg/mL ACD): 110.74 µg/mL | Quantity of Fulvestrant Diluted Run 1 (50 mg/mL ACD): 110.600 µg/mL | Quantity of Fulvestrant Diluted Run 2 (50 mg/mL ACD): 110.880 µg/mL | True Fulvestrant Concentration (50 mg/mL GCD in ddH2O): 0.011 mg/mL | Average Concentration (50 mg/mL GCD): 10.62 µg/mL | Quantity of Fulvestrant Diluted Run 1 (50 mg/mL GCD): 10.700 µg/mL | Quantity of Fulvestrant Diluted Run 2 (50 mg/mL GCD): 10.530 µg/mL | True Fulvestrant Concentration (50 mg/mL HPBCD in ddH2O): 0.210 mg/mL | Average Concentration (50 mg/mL HPBCD): 20.95 µg/mL | Quantity of Fulvestrant Diluted Run 1 (50 mg/mL HPBCD): 21.09 µg/mL | Quantity of Fulvestrant Diluted Run 2 (50 mg/mL HPBCD): 20.81 µg/mL | True Fulvestrant Concentration (50 mg/mL HPGCD in ddH2O): 0.037 mg/mL | Average Concentration (50 mg/mL HPGCD): 38.32 µg/mL | Quantity of Fulvestrant Diluted Run 1 (50 mg/mL HPGCD): 38.66 µg/mL | Quantity of Fulvestrant Diluted Run 2 (50 mg/mL HPGCD): 37.97 µg/mL | True Fulvestrant Concentration (50 mg/mL MBCD in ddH2O): 0.750 mg/mL | Average Concentration (50 mg/mL MBCD): 74.99 µg/mL | Quantity of Fulvestrant Diluted Run 1 (50 mg/mL MBCD): 74.61 µg/mL | Quantity of Fulvestrant Diluted Run 2 (50 mg/mL MBCD): 75.37 µg/mL | True Fulvestrant Concentration (50 mg/mL SBEBCD in ddH2O): 0.077 mg/mL | Average Concentration (50 mg/mL SBEBCD): 77.30 µg/mL | Quantity of Fulvestrant Diluted Run 1 (50 mg/mL SBEBCD): 76.98 µg/mL | Quantity of Fulvestrant Diluted Run 2 (50 mg/mL SBEBCD): 77.61 µg/mL | True Fulvestrant Concentration (75 mg/mL ACD in ddH2O): 0.310 mg/mL | Average Concentration (75 mg/mL ACD): 310.32 µg/mL | Quantity of Fulvestrant Diluted Run 1 (75 mg/mL ACD): 310.460 µg/mL | Quantity of Fulvestrant Diluted Run 2 (75 mg/mL ACD): 310.170 µg/mL | True Fulvestrant Concentration (100 mg/mL ACD in ddH2O): 1.683 mg/mL | Average Concentration (100 mg/mL ACD): 168.26 µg/mL | Quantity of Fulvestrant Diluted Run 1 (100 mg/mL ACD): 162.660 µg/mL | Quantity of Fulvestrant Diluted Run 2 (100 mg/mL ACD): 173.850 µg/mL | True Fulvestrant Concentration (100 mg/mL GCD in ddH2O): <0.010 mg/mL | Average Concentration (100 mg/mL GCD): <10.00 µg/mL | Quantity of Fulvestrant Diluted Run 1 (100 mg/mL GCD): <10.000 µg/mL | Quantity of Fulvestrant Diluted Run 2 (100 mg/mL GCD): <10.000 µg/mL | True Fulvestrant Concentration (100 mg/mL HPBCD in ddH2O): 0.483 mg/mL | Average Concentration (100 mg/mL HPBCD): 48.30 µg/mL | Quantity of Fulvestrant Diluted Run 1 (100 mg/mL HPBCD): 48.32 µg/mL | Quantity of Fulvestrant Diluted Run 2 (100 mg/mL HPBCD): 48.27 µg/mL | True Fulvestrant Concentration (100 mg/mL HPGCD in ddH2O): 0.107 mg/mL | Average Concentration (100 mg/mL HPGCD): 116.27 µg/mL | Quantity of Fulvestrant Diluted Run 1 (100 mg/mL HPGCD): 116.80 µg/mL | Quantity of Fulvestrant Diluted Run 2 (100 mg/mL HPGCD): 115.74 µg/mL | True Fulvestrant Concentration (100 mg/mL MBCD in ddH2O): 3.021 mg/mL | Average Concentration (100 mg/mL MBCD): 302.06 µg/mL | Quantity of Fulvestrant Diluted Run 1 (100 mg/mL MBCD): 302.12 µg/mL | Quantity of Fulvestrant Diluted Run 2 (100 mg/mL MBCD): 301.99 µg/mL | True Fulvestrant Concentration (100 mg/mL SBEBCD in ddH2O): 0.167 mg/mL | Average Concentration (100 mg/mL SBEBCD): 167.10 µg/mL | Quantity of Fulvestrant Diluted Run 1 (100 mg/mL SBEBCD): 167.7 µg/mL | Quantity of Fulvestrant Diluted Run 2 (100 mg/mL SBEBCD): 166.49 µg/mL | True Fulvestrant Concentration (150 mg/mL GCD in ddH2O): <0.010 mg/mL | Average Concentration (150 mg/mL GCD): <10.00 µg/mL | Quantity of Fulvestrant Diluted Run 1 (150 mg/mL GCD): <10.000 µg/mL | Quantity of Fulvestrant Diluted Run 2 (150 mg/mL GCD): <10.000 µg/mL | True Fulvestrant Concentration (150 mg/mL HPBCD in ddH2O): 0.937 mg/mL | Average Concentration (150 mg/mL HPBCD): 93.66 µg/mL | Quantity of Fulvestrant Diluted Run 1 (150 mg/mL HPBCD): 93.82 µg/mL
